Experimental data from patent US11149018B2, “Substituted N-arylethyl-2-aminoquinoline-4-carboxamides and use thereof” (Bayer Aktiengesellschaft, priority 2017, dated 2021).

What follows are compounds tested against FP receptor (Homo sapiens (Human), UniProt P43088) (assay: In vitro test of inhibition of human FP receptor activity (PGF2α-induced calcium flux in FP-expressing CHEM1 cells)). Settings: PGF2α 2 nM, some mean values of multiple determinations.
Assay type: cell-based
Procedure, shortened: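 FP antagonism in FP-expressing CHEM1 cells loaded with Fluo-8. Compound preincubated 10 min at 37° C, then receptor stimulated with 2 nM (final) PGF2α in calcium-free Tyrode with 2 mM CaCl2.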

FP receptor, sequence (P43088 whole entry): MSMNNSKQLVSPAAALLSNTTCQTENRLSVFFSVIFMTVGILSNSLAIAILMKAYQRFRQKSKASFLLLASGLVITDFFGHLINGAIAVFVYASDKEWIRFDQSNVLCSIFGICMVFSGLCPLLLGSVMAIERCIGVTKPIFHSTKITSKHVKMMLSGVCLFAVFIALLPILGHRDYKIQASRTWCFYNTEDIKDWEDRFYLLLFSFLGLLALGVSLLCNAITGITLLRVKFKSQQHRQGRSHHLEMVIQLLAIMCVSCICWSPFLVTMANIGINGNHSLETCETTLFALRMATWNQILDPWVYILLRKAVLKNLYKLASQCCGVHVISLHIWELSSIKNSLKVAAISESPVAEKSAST

SMILES	IC50
Cc1c(N2CCCC(F)(F)C2)nc2ccc(Br)cc2c1C(=O)NCC(CCC(=O)O)c1c(F)cccc1C(F)(F)F (single isomer, unassigned; (-)) [Example 167, (−)-5-({[6-Bromo-2-(3,3-difluoropiperidin-1-yl)-3-methylquinolin-4-yl]carbonyl}amino)-4-[2-fluoro-6-(trifluoromethyl)phenyl]pentanoic acid]	3.7 nM
CCC1CCCN(c2nc3ccc(Br)cc3c(C(=O)NCC(CCC(=O)O)c3c(Cl)ccc(Cl)c3Cl)c2C)C1 (stereo not drawn) [Example 181, 5-[({6-Bromo-2-[3-ethylpiperidin-1-yl]-3-methylquinolin-4-yl}carbonyl)amino]-4-(2,3,6-trichlorophenyl)pentanoic acid]	6.6 nM
Cc1c(N2CCC(F)(F)CC2)nc2ccc(Br)cc2c1C(=O)NCC(CCC(=O)O)c1cc(F)ccc1Cl (racemic) [Example 8, (+/−)-5-({[6-Bromo-2-(4,4-difluoropiperidin-1-yl)-3-methylquinolin-4-yl]carbonyl}amino)-4-(2-chloro-5-fluorophenyl)pentanoic acid]	58 nM
Cc1c(N2CCCCC2)nc2ccc(Br)cc2c1C(=O)NCC(CCC(=O)O)c1c(F)cccc1OC(F)F (single isomer, unassigned; (+)) [Example 184, (+)-5-({[6-Bromo-3-methyl-2-(piperidin-1-yl)quinolin-4-yl]carbonyl}amino)-4-[2-(difluoromethoxy)-6-fluorophenyl]pentanoic acid]	13 nM
CCC1CCCN(c2nc3ccc(Br)cc3c(C(=O)NCC(CCC(=O)O)c3cc(F)ccc3F)c2C)C1 (single isomer, unassigned; (+)) [Example 228, (+)-5-[({6-Bromo-2-[3-ethylpiperidin-1-yl]-3-methylquinolin-4-yl}carbonyl)amino]-4-(2,5-difluorophenyl)pentanoic acid]	1.1 nM
Cc1c(N2CCC[C@H]2C)nc2ccc(Br)cc2c1C(=O)NCC(CCC(=O)O)c1ccccc1Cl (single isomer, unassigned; (+)) [Example 83]	6.4 nM
Cc1c(N2CCCC2)nc2ccc(Br)cc2c1C(=O)NCC(CCC(=O)O)c1c(F)cccc1C(F)(F)F (racemic) [Example 163, (+/−)-5-({[6-Bromo-3-methyl-2-(pyrrolidin-1-yl)quinolin-4-yl]carbonyl}amino)-4-[2-fluoro-6-(trifluoromethyl)phenyl]pentanoic acid]	11 nM
Cc1c(N2CCC[C@@H]2C)nc2ccc(Br)cc2c1C(=O)NCC(CCC(=O)O)c1ccccc1Cl (single isomer, unassigned; (-)) [Example 80]	98 nM
COc1ccccc1C(CCC(=O)O)CNC(=O)c1c(C)c(N2CCCC2)nc2ccc(Br)cc12 (single isomer, unassigned; (+)) [Example 237, (+)-5-({[6-Bromo-3-methyl-2-(pyrrolidin-1-yl)quinolin-4-yl]carbonyl}amino)-4-(2-methoxyphenyl)pentanoic acid]	4.3 nM
Cc1c(N2CCCC(C)C2)nc2ccc(Br)cc2c1C(=O)NCC(CCC(=O)O)c1ccccc1C(F)(F)F (single isomer, unassigned; (+)) [Example 197, (+)-5-[({6-Bromo-3-methyl-2-[3-methylpiperidin-1-yl]quinolin-4-yl}carbonyl)amino]-4-[2-(trifluoromethyl)phenyl]pentanoic acid]	21 nM
Cc1c(N2CC=CCC2)nc2ccc(Br)cc2c1C(=O)NCC(CCC(=O)O)c1ccccc1Cl (racemic) [Example 29, (+/−)-5-({[6-Bromo-2-(3,6-dihydropyridin-1(2H)-yl)-3-methylquinolin-4-yl]carbonyl}amino)-4-(2-chlorophenyl)pentanoic acid]	22 nM
Cc1c(N2CCCOCC2)nc2ccc(Br)cc2c1C(=O)NCC(CCC(=O)O)c1ccccc1Cl (racemic) [Example 90, (+/−)-5-({[6-Bromo-3-methyl-2-(1,4-oxazepan-4-yl)quinolin-4-yl]carbonyl}amino)-4-(2-chlorophenyl)pentanoic acid]	59 nM
Cc1c(N2CCCC2)nc2ccc(Br)cc2c1C(=O)NCC(CCC(=O)O)c1cc(F)ccc1Cl (racemic) [Example 13, (+/−)-5-({[6-Bromo-3-methyl-2-(pyrrolidin-1-yl)quinolin-4-yl]carbonyl}amino)-4-(2-chloro-5-fluorophenyl)pentanoic acid]	18 nM
Cc1c(N(C)CCc2ccccc2)nc2ccc(Br)cc2c1C(=O)NCC(CCC(=O)O)c1ccccc1Cl (racemic) [Example 95, (+/−)-5-[({6-Bromo-3-methyl-2-[methyl(2-phenylethyl)amino]quinolin-4-yl}carbonyl)amino]-4-(2-chlorophenyl)pentanoic acid]	65 nM
Cc1c(N2CCCC(F)(F)C2)nc2ccc(Br)cc2c1C(=O)NCC(CCC(=O)O)c1c(F)ccc(F)c1Cl (racemic) [Example 155, (+/−)-5-({[6-Bromo-2-(3,3-difluoropiperidin-1-yl)-3-methylquinolin-4-yl]carbonyl}amino)-4-(2-chloro-3,6-difluorophenyl)pentanoic acid]	3 nM
Cc1c(N2CCCC2)nc2ccc(Br)cc2c1C(=O)NCC(CCC(=O)O)c1c(F)cccc1C(F)(F)F (single isomer, unassigned; (+)) [Example 164, (+)-5-({[6-Bromo-3-methyl-2-(pyrrolidin-1-yl)quinolin-4-yl]carbonyl}amino)-4-[2-fluoro-6-(trifluoromethyl)phenyl]pentanoic acid]	80 nM
Cc1c(N2CCCC2)nc2ccc(Br)cc2c1C(=O)NCC(CCC(=O)O)c1ccccc1OC(F)(F)F (single isomer, unassigned; (+)) [Example 131, (+)-5-({[6-Bromo-3-methyl-2-(pyrrolidin-1-yl)quinolin-4-yl]carbonyl}amino)-4-[2-(trifluoromethoxy)phenyl]pentanoic acid]	9.8 nM
Cc1ccc(F)cc1C(CCC(=O)O)CNC(=O)c1c(C)c(N2CCCCC2)nc2ccc(Br)cc12 (single isomer, unassigned; (-)) [Example 148, (−)-5-({[6-Bromo-3-methyl-2-(piperidin-1-yl)quinolin-4-yl]carbonyl}amino)-4-(5-fluoro-2-methylphenyl)pentanoic acid]	4.5 nM
Cc1c(N2CCCCCC2)nc2ccc(Br)cc2c1C(=O)NCC(CCC(=O)O)c1ccccc1OC(F)(F)F (racemic) [Example 135, (+/−)-5-({[2-(Azepan-1-yl)-6-bromo-3-methylquinolin-4-yl]carbonyl}amino)-4-[2-(trifluoromethoxy)phenyl]pentanoic acid]	3 nM
Cc1c(N2CCCCCC2)nc2ccc(Br)cc2c1C(=O)NCC(CCC(=O)O)c1ccccc1C(F)(F)F (racemic) [Example 120, (+/−)-5-({[2-(Azepan-1-yl)-6-bromo-3-methylquinolin-4-yl]carbonyl}amino)-4-[2-(trifluoromethyl)phenyl]pentanoic acid]	11 nM
Cc1c(N2CCSCC2)nc2ccc(Br)cc2c1C(=O)NCC(CCC(=O)O)c1ccccc1Cl (single isomer, unassigned; (+)) [Example 26, (+)-5-({[6-Bromo-3-methyl-2-(thiomorpholin-4-yl)quinolin-4-yl]carbonyl}amino)-4-(2-chlorophenyl)pentanoic acid]	21 nM
Cc1c(N2CCCCC2)nc2ccc(Br)cc2c1C(=O)NCC(CCC(=O)O)c1c(Cl)ccc(Cl)c1Cl (single isomer, unassigned; (-)) [Example 173, (−)-5-({[6-Bromo-3-methyl-2-(piperidin-1-yl)quinolin-4-yl]carbonyl}amino)-4-(2,3,6-trichlorophenyl)pentanoic acid]	2.2 nM
Cc1c(N2CC[C@@H](F)C2)nc2ccc(Br)cc2c1C(=O)NCC(CCC(=O)O)c1ccccc1Cl (single isomer, unassigned; (+)) [Example 67]	6.5 nM
COC1CCCN(c2nc3ccc(Br)cc3c(C(=O)NCC(CCC(=O)O)c3cc(F)ccc3Cl)c2C)C1 (stereo not drawn) [Example 19, 5-[({6-Bromo-2-[3-methoxypiperidin-1-yl]-3-methylquinolin-4-yl}carbonyl)amino]-4-(2-chloro-5-fluorophenyl)pentanoic acid]	130 nM
Cc1c(NC2CCC2)nc2ccc(Br)cc2c1C(=O)NCC(CCC(=O)O)c1ccccc1Cl (racemic) [Example 97, (+/−)-5-({[6-Bromo-2-(cyclobutylamino)-3-methylquinolin-4-yl]carbonyl}amino)-4-(2-chlorophenyl)pentanoic acid]	530 nM
Cc1c(N2CCC(C)(F)C2)nc2ccc(Br)cc2c1C(=O)NCC(CCC(=O)O)c1ccccc1Cl (stereo not drawn) [Example 71, 5-[({6-Bromo-2-[3-fluoro-3-methylpyrrolidin-1-yl]-3-methylquinolin-4-yl}carbonyl)amino]-4-(2-chlorophenyl)pentanoic acid]	110 nM
Cc1c(N2CCCC(F)C2)nc2ccc(Br)cc2c1C(=O)NCC(CCC(=O)O)c1ccccc1Cl (stereo not drawn) [Example 78, 5-[({6-Bromo-2-[3-fluoropiperidin-1-yl]-3-methylquinolin-4-yl}carbonyl)amino]-4-(2-chlorophenyl)pentanoic acid]	4.4 nM
Cc1c(N2CCSCC2)nc2ccc(Br)cc2c1C(=O)NCC(CCC(=O)O)c1ccccc1Cl (single isomer, unassigned; (-)) [Example 27, (−)-5-({[6-Bromo-3-methyl-2-(thiomorpholin-4-yl)quinolin-4-yl]carbonyl}amino)-4-(2-chlorophenyl)pentanoic acid]	14 nM
Cc1c(N2CCCCCC2)nc2ccc(Br)cc2c1C(=O)NCC(CCC(=O)O)c1c(F)ccc(F)c1Cl (single isomer, unassigned; (+)) [Example 219, (+)-5-({[2-(Azepan-1-yl)-6-bromo-3-methylquinolin-4-yl]carbonyl}amino)-4-(2-chloro-3,6-difluorophenyl)pentanoic acid]	29 nM
Cc1c(N2CCCC(F)C2)nc2ccc(Br)cc2c1C(=O)NCC(CCC(=O)O)c1ccccc1Cl (single isomer, unassigned; (-)) [Example 185, (−)-5-[({6-Bromo-2-[3-fluoropiperidin-1-yl]-3-methylquinolin-4-yl}carbonyl)amino]-4-(2-chlorophenyl)pentanoic acid]	4 nM
